Consider one compound from patent US7375105B2, “Pyridine substituted furan derivatives as Raf kinase inhibitors” (SmithKline Beecham p.l.c., priority 2001, dated 2008).

Assay [1] deals with Human diploid foreskin fibroblasts (HFF). The experiment in a line: XTT 72 hr growth inhibition (Assay 3), HFF. The class given is cell-based. The settings on record: Fibroblast, normal, B-Raf wt, Ras wt. As to the method: (§1) XTT 72 Hr Growth Inhibition Protocol for Mammalian Cultured Cells (Assay 3)
(§2) Human diploid foreskin fibroblasts (HFF) or human colon carcinoma (Colo 201) cells were grown in Dulbecco's modified Eagle's medium (DMEM) (Invitrogen/Life Technologies) containing 10% fetal bovine serum (FBS) and the antibiotics penicillin (100 Units/ml) and streotomycin (100 micrograms/ml) (Invitrogen/Life Technologies). Growth was at 37° C. in humidified 5% CO2 incubators in 75 cm^2 plastic flasks. Cells were harvested using 0.25% trypsin/1 mM ethylenediaminetetraacetic acid (EDTA), resuspended in growth medium, and counted using a hemocytometer. Flat-bottomed 96-well plates were seeded with 2×10^3 cells/well in a volume of 200 ul from trypsinized exponentially growing cultures. To “blank” wells, growth medium was added with no additions. Cells were incubated overnight to permit attachment.
(§3) Next day, medium from wells that contained cells was replaced with 180 microliters of fresh medium. Appropriate dilutions of test compounds were added to the wells from stock solutions of compound dissolved in dimethyl sulfoxide (DMSO); final DMSO concentration in all wells was 0.2%. […] Absorbance at 450 nm was then determined using a 96-well UV plate reader (Molecular Devices). Under these conditions, absorbance of untreated control cells at 450 nm was at least 1.0 optical density unit/ml. […]
A general note: Tetrazolium assays rely on reduction of a dye to a coloured formazan, in cell work by metabolically active cells.

A further assay concerns the target B-Raf (Homo sapiens, UniProt P15056). Put plainly: Fluorescence anisotropy kinase binding assay (Assay 1). An excerpt: Fluorescence Anisoptrophy Kinase Binding Assay
The concentration of kinase enzyme should preferably be >1×Kf. The concentration of fluorescent ligand required will depend on the instrumentation used, and the fluorescent and physicochemical properties. The concentration used must be lower than the concentration of kinase enzyme, and preferably less than half the kinase enzyme concentration. A typical protocol is:
All compounds are serially diluted in DMSO, then by a one step dilution into buffer of comparison, 50 mM HEPES, […] pH7.5, 1 mM CHAPS, 10 mM MgCL2, for the assay.
B-Raf Enzyme concentration: 1 nM
Fluorescent ligand concentration: 0.5 nM
Test compound concentration: 0.5 nM-100 uM
Components incubated in 10 ul final volume in LJL HE 384 type B black microtitre plate until equilibrium reached (Over 3 h, up to 30 h)
Fluorescence anisotropy read in an LJL Acquest fluorescence reader.
Definitions: Ki=dissociation constant for inhibitor binding
• Kf=dissociation constant for fluorescent ligand binding
The fluorescent ligand is the following compound:
which is derived from 5-[2-(4-aminomethylphenyl)-5-pyridin-4-yl-1H-imidazol-4-yl]-2-chlorophenol and rhodamine green.
Background: Fluorescence polarisation rises when a labelled molecule tumbles more slowly, as on binding a larger partner.

The test system of assay [2] is colon carcinoma (Colo 205). Put plainly: Methylene blue growth inhibition assay (Assay 2), Colo205. The class given is cell-based. The following applies: Homo sapiens, colorectal cancer, B-Raf V599E, Ras wt. As to the method: (§4) Methylene Blue Growth Inhibition Assay (Assay 2)
(§5) Normal human foreskin fibroblasts (HFF), human melanoma (A375P, SKMEL2, SKMEL3) colon carcinoma (Colo 205) were cultured in the following growth media: A375P, Colo 205, Roswell Park Memorial Institute (RPMI) 1640 (Life Technologies 22400-089) containing 10% fetal bovine serum (FBS); HFF, Dulbecco's modified Eagle Medium (DMEM) (Life Technologies 12320-032) containing 10% FBS; SKMEL2 and SKMEL3, Minimum Essential Medium (MEM, Life Technologies 11095-080) containing 1× non-essential amino acids (Life Technologies 11140-050) and 10% FBS. Cells were harvested using 0.25% trypsin/1 mM, EDTA, counted using a haemocytometer, and plated in 100 microliters of the appropriate media, at the following densities, in a 96-well tissue culture plate (Falcon 3075): HFF and A375P, 5,000 cells/well; all other cell lines, 10,000 cells/well. The next day, compounds were diluted in RPMI containing 100 micrograms/ml gentamicin, at twice the final required concentration, from 10 mM stock solutions in dimethyl sulphoxide (DMSO). One hundred microliters per well of these dilutions were added to the 100 microliters of media currently on the cell plates. RPMI containing 0.6% DMSO was added to control wells. […] Optical density at 620 nm was measured on a microplate reader. Percent inhibition of cell growth was calculated relative to vehicle treated control wells. […]

A further assay deals with human melanoma SKMEL3. The experiment in a line: Methylene blue growth inhibition assay (Assay 2), SKMEL3. The class given is cell-based. The settings on record: SK-MEL3, B-Raf V599E, Ras wt. Here is the method: as §4, §5
A further assay relates to human melanoma SKMEL2. The experiment in a line: Methylene blue growth inhibition assay (Assay 2), SKMEL2. Format: cell-based. The settings on record: SK-MEL-2, B-Raf wt, [Q61R]N-Ras. As to the method:
as §4, §5

For a further assay, the system named is human melanoma A375P. Put plainly: Methylene blue growth inhibition assay (Assay 2), A375P. The class given is cell-based. The settings on record: B-Raf V599E, Ras wt. As to the method:
as §4, §5

Assay [3] relates to human colon carcinoma (Colo 201) cells. Put plainly: XTT 72 hr growth inhibition (Assay 3), Colo201. The settings on record: colorectal cancer, B-Raf ND, Ras ND. Format: cell-based. As to the method: as §1, §2, §3

B-Raf, sequence (P15056 whole entry): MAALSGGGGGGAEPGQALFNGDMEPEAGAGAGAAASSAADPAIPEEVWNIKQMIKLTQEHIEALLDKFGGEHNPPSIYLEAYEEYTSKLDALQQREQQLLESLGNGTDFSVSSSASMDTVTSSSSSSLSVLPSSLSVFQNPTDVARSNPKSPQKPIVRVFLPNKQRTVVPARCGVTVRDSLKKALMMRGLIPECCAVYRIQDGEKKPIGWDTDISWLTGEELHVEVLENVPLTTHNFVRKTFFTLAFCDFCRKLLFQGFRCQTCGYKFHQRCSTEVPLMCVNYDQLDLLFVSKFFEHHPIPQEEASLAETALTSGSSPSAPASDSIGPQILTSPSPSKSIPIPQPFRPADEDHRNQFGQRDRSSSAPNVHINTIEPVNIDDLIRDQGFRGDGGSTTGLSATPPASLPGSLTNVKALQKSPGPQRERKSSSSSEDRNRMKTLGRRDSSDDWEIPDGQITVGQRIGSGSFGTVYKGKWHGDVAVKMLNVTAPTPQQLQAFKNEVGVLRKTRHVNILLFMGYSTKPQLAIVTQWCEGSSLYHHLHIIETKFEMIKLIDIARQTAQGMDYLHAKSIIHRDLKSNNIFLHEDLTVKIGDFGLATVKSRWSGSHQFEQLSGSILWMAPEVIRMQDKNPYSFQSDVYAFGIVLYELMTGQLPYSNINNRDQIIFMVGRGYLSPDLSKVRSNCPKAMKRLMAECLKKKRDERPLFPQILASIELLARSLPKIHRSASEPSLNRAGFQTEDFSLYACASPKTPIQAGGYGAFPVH

As a reminder, the IC50 is the concentration that inhibits the measured activity by half. A high value points to weaker potency in that assay. In general, Kd refers to the free concentration of one partner at which half of the binding sites on the other are occupied at equilibrium, for simple one-to-one binding. A lower Kd goes with higher affinity. With `CC(C)(CN)c1cc(-c2ccncc2)c(-c2ccc(Cl)c(O)c2)o1` [Example 3, 5-[5-(2-Amino-1,1-dimethyl-ethyl)-3-pyridin-4-yl-furan-2-yl]-2-chloro-phenol], the IC50 amounted to 22 µM in assay [1]; 7.9 µM in assay [2]; 1.4 µM with human melanoma SKMEL3; 4.9 µM with human melanoma SKMEL2; 1.8 µM in the assay on human melanoma A375P; 8.5 µM in assay [3]. The same compound had a Kd on B-Raf of 5.5 nM.
